Counter-ions that a name gives are not always drawn. Like-named read-outs stand apart in the source and are kept apart here.
Legend:
Type in all cases: cell-based
[1] = tested on: Cryptococcus neoformans yeast replication; settings: signal relative to negative control
From the text: (§1) To identify inhibitors of Cryptococcus neoformans spore germination, a high throughput screen was developed that utilizes a nanoluciferase construct to monitor whether spores germinate in the presence of inhibitor. Briefly a protein luciferase construct was created resulting in a low luciferase signal for non-germinated spores and a high signal from germinated and replicating cells. The screen was coupled with OD600 readings to monitor the ability of compounds to inhibit yeast replication. The examples focused on FDA-approved drugs, as these drugs have the potential of being repurposed into antifungal therapeutics. To determine whether any FDA-approved drugs were able to inhibit Cryptococcus neoformans spore germination and yeast replication, the aforementioned high throughput screen was performed on the L1300 Selleck FDA-Approved Drug Library containing an array of 1108 compounds. This library of compounds is available commercially from Selleck Chemicals, 14408 W Sylvanfield Drive, Houston, Tex. 77014, USA.
(§2) The screening was successful at identifying known antifungal drugs as inhibitors of yeast replication as indicated by an OD600 signal of less than 75% of the negative control (Table 2). For the purpose of these examples, antifungal drugs were defined as any FDA-approved drug used in the treatment of fungal infections. Of these 23 known antifungal drugs, only six (6) were identified as inhibitors of spore germination, indicated by a luciferase signal of less than 30% of the negative control.

[2] = tested on: Cryptococcus neoformans spore germination; test: High throughput nanoluciferase screen of spore germination (L1300 Selleck FDA-Approved Drug Library)
From the text: as §1, §2

[3] = tested on: Cryptococcus neoformans (JEC21); test: MIC/MFC experiments (EUCAST based), JEC21; settings: for Ability to inhibit yeast growth / replication in MIC and MFC testing: yeast strain not given, data not shown for non-inhibitors; for MFC: Cryptococcus neoformans
Experimental: (§3) All minimum inhibitory concentration (MIC) experiments were based on EUCAST methodology. […] After 6-hour incubation, yeast cells were washed in 1×PBS and quantified using a hemocytometer. […] Cryptococcus neoformans cells were incubated for 2 days at 30° C. while Candida albicans strains were incubated for 2 days at 35° C. OD600 readings were used to assess the MIC values for each drug. To determine minimum fungicidal concentrations (MFC) values, 3 μL per well were plated on YPD and allowed to grow for 2 days.

[4] = tested on: Cryptococcus neoformans (H99); test: MIC/MFC experiments (EUCAST based), H99; settings: 48 h; for MFC: Cryptococcus neoformans
Experimental: as §3

[5] = tested on: Candida albicans (SC5314); test: MIC/MFC experiments (EUCAST based), Candida albicans; settings: SC5314, 48 h
Experimental: as §3

[6] = tested on: Cryptococcus neoformans spores (JEC20 x JEC21); test: Quantitative germination assay (microfluidic devices, cell size and shape)
Experimental: All germination assays are based on Barkal et al., 2016. Briefly, microfluidic devices were loaded with 1×10^5 spores, and at 0 hours, SD media with drug of interest, were added to the sample. Spores were allowed to germinated at 30° C. in a humidified chamber and cells were monitored every two (2) hours for 16 hours. Each assay was performed in two (2) individual wells with three (3) field of views acquired from each well. All images were analyzed as previously described based on cell shape and size. Population ratio of spores, intermediate, and yeast cells were determined. Error bars in plots are based on variation between all fields of view acquired. […] After the 16-hour experiment, samples were plated on YPD and allowed to grow at 30° C. to determine if drugs were completely germicidal or not based on lack of growth. If assays were unable to be performed in microfluidic devices, the […] spores were incubated in identical conditions outside of PDMS devices and only loaded into devices for image acquisition.

[7] = tested on: Aspergillus Fumigatus (AF293); test: Aspergillus fumigatus MIC on conidia; settings: Aspergillus fumigatus; Table 4; conidia; lowest concentration with complete absence of germ tubes or hyphae; read-out: MIC
Experimental: Conidia at a final concentration of 2×10^4 cells were incubated in RPMI, 0.33 M MOPS, and 2% glucose at pH 7 at varying concentrations of inhibitors, with a final volume of 200 μL.

[8] = Table 2, antifungal drugs, less than 75% = inhibitor of yeast replication
[9] = Table 2, antifungal drugs, signal relative to negative control, less than 30% = inhibitor of germination
[10] = Table 3, other FDA-approved drugs
[11] = Table 3, other FDA-approved drugs, signal relative to negative control
[12] = Table 4, plated on YPD, 2 days, read-out: MFC

Compound | Replication Percent OD600 [1, 8] [%] | Germination Percent Luciferase Signal [2, 9] [%] | Replication Percent OD600 [1, 10] [%] | also measured
CCC(C)(C)c1ccc(CC(C)CN2C[C@@H](C)O[C@@H](C)C2)cc1 (stereo partly drawn) [Amorolfine HCl] | 41.4 | 88.6 | – | –
C[C@@H]1[C@H](O)[C@@H](C)/C=C/C=C/C=C/C=C/C=C/C=C/C=C/[C@H](O[C@@H]2O[C@H](C)[C@@H](O)[C@H](N)[C@@H]2O)C[C@@H]2O[C@](O)(C[C@@H](O)C[C@@H](O)[C@H](O)CC[C@@H](O)C[C@@H](O)CC(=O)O[C@H]1C)C[C@H](O)[C@H]2C(=O)O [Amphotericin B] | 45.7 | 84.6 | – | –
CC(C)(C)CC(C)(C)c1ccc(OCCOCC[N+](C)(C)Cc2ccccc2)cc1 [Benzethonium chloride] | – | – | 30.3 | Germination Percent Luciferase Signal [2]: 6.9%
OC(CCN1CCCCC1)(c1ccccc1)C1CC2C=CC1C2 (stereo not drawn) [Biperiden HCl] | – | – | 56.6 | Germination Percent Luciferase Signal [2, 11]: 23.4%; Ability to inhibit yeast growth / replication in MIC and MFC testing [3]: unable to inhibit yeast growth
CN(Cc1ccc(C(C)(C)C)cc1)Cc1cccc2ccccc12 [Butenafine HCl] | 32.9 | 57.5 | – | –
Clc1ccc(CCC(Cn2ccnc2)Sc2c(Cl)cccc2Cl)cc1 (stereo not drawn) [Butoconazole nitrate] | 33.4 | 41.5 | – | –
CCCCCCCCCCCCCCCC[N+](C)(C)C.[Br-] [Cetrimonium bromide] | – | – | 63.2 | Germination Percent Luciferase Signal [2, 11]: 4.4%
CCCCCCCCCCCCCCCC[n+]1ccccc1 [Cetylpyridinium chloride] | – | – | 31.9 | Germination Percent Luciferase Signal [2]: 4.2%; MFC [4]: < 0.78 µg/mL; MFC ([3]; 48 h): < 0.78 µg/mL; MFC [5]: 3.13 µg/mL
CC(C)(C)C(=O)C(Oc1ccc(Cl)cc1)n1ccnc1 (stereo not drawn) [Climbazole] | 38.9 | 151.5 | – | –
Clc1ccccc1C(c1ccccc1)(c1ccccc1)n1ccnc1 [Clotrimazole] | 34.1 | 65.9 | – | –
Cc1cc(N)c2ccccc2[n+]1CCCCCCCCCC[n+]1c(C)cc(N)c2ccccc21 [Dequalinium chloride] | – | – | 47.9 | Germination Percent Luciferase Signal [2, 11]: 22.3%
CCCCCCCCCCCC[N+](C)(C)CCOc1ccccc1 [Domiphen bromide] | – | – | 63.9 | Germination Percent Luciferase Signal [2, 11]: 4.4%
C=C1/C(=C\C=C2/CCC[C@]3(C)[C@@H]([C@H](C)/C=C/[C@H](C)C(C)C)CC[C@@H]23)C[C@@H](O)C[C@@H]1O [Doxercalciferol] | – | – | 55.2 | Germination Percent Luciferase Signal [2, 11]: 17.1%
CO[C@H]1C[C@@H]2CC[C@@H](C)[C@@](O)(O2)C(=O)C(=O)N2CCCC[C@H]2C(=O)O[C@H]([C@H](C)C[C@@H]2CC[C@@H](OCCO)[C@H](OC)C2)CC(=O)[C@H](C)/C=C(\C)[C@@H](O)[C@@H](OC)C(=O)[C@H](C)C[C@H](C)/C=C/C=C/C=C/1C [Everolimus] | – | – | 67.7 | Germination Percent Luciferase Signal [2, 11]: 15.7%
O=C1[C@H](CC[C@H](O)c2ccc(F)cc2)[C@@H](c2ccc(O)cc2)N1c1ccc(F)cc1 [Ezetimibe] | – | – | 51.3 | Germination Percent Luciferase Signal [2, 11]: 22.0%; Ability to inhibit yeast growth / replication in MIC and MFC testing [3]: unable to inhibit yeast growth
Clc1ccc(C(Cn2ccnc2)OCc2ccc(Sc3ccccc3)cc2)c(Cl)c1 (stereo not drawn) [Fenticonazole nitrate] | 36.4 | 49.1 | – | –
OC(Cn1cncn1)(Cn1cncn1)c1ccc(F)cc1F [Fluconazole] | 72.2 | 84.0 | – | –

Compound | Replication Percent OD600 [1, 8] [%] | Germination Percent Luciferase Signal [2, 9] [%] | Replication Percent OD600 [1, 10] [%] | also measured
Clc1ccc(C(Cn2ccnc2)OCc2c(Cl)cccc2Cl)c(Cl)c1 (stereo not drawn) [Isoconazole nitrate] | 37.0 | 16.8 | – | –
CCC(C)n1ncn(-c2ccc(N3CCN(c4ccc(OCC5COC(Cn6cncn6)(c6ccc(Cl)cc6Cl)O5)cc4)CC3)cc2)c1=O (stereo not drawn) [Itraconazole] | 58.9 | 159.6 | – | –
CC(=O)N1CCN(c2ccc(OCC3COC(Cn4ccnc4)(c4ccc(Cl)cc4Cl)O3)cc2)CC1 (stereo not drawn) [Ketoconazole] | 35.4 | 154.8 | – | –
COc1cccc(N(C)C(=S)Oc2ccc3c(c2)CCCC3)n1 [Liranaftate] | 37.6 | 64.8 | – | –
Clc1ccc(COC(Cn2ccnc2)c2ccc(Cl)cc2Cl)c(Cl)c1 (stereo not drawn) [Miconazole nitrate] | 38.2 | 25.5 | – | –
CN(C/C=C/c1ccccc1)Cc1cccc2ccccc12 [Naftifine HCl] | 34.5 | 55.5 | – | –
C=CC(=O)N1CCC[C@@H](n2nc(-c3ccc(Oc4ccccc4)cc3)c3c(N)ncnc32)C1 [PCl-32765] | – | – | 70.3 | Germination Percent Luciferase Signal [2, 11]: 10.6%
N=C(N)c1ccc(OCCCCCOc2ccc(C(=N)N)cc2)cc1 [Pentamidine HCl] | 38.3 | 6.5 | – | –
N=C(N)c1ccc(OCCCCCOc2ccc(C(=N)N)cc2)cc1 [Pentamidine isethionate] | – | – | – | Inhibition of spore germination, antifungal drugs ([6]; concentration not given, bifonazole and econazole nitrate tested outside the microfluidic device, imaged at 0 and 16 hours): able to successfully inhibit spore germination; Spore escape from inhibition (words) ([6]; yeast population increase = escape): none of the ˜10,000 spores showed inherent resistance and escape from inhibition; MIC [7]: > 100 µg/mL; MIC ([4]; Table 4, yeast, 2 days at 30° C., OD600, read-out: MIC): 6.25 µg/mL; MFC [4, 12]: 6.25 µg/mL; MIC ([3]; 48 h, Table 4, yeast, 2 days at 30° C., OD600, read-out: MIC): 1.56 µg/mL; MFC ([3]; 48 h, Table 4, plated on YPD, 2 days, read-out: MFC): 3.13 µg/mL; MIC ([5]; Table 4, 2 days at 35° C., OD600, read-out: MIC): 50 µg/mL; MFC [5, 12]: 50 µg/mL
CC[C@@H]([C@H](C)O)n1ncn(-c2ccc(N3CCN(c4ccc(OC[C@@H]5CO[C@@](Cn6cncn6)(c6ccc(F)cc6F)C5)cc4)CC3)cc2)c1=O [Posaconazole] | 46.7 | 167.2 | – | –
CO[C@H]1C[C@@H]2CC[C@@H](C)[C@@](O)(O2)C(=O)C(=O)N2CCCC[C@H]2C(=O)O[C@H]([C@H](C)C[C@@H]2CC[C@@H](O)[C@H](OC)C2)CC(=O)[C@H](C)/C=C(\C)[C@@H](O)[C@@H](OC)C(=O)[C@H](C)C[C@H](C)/C=C/C=C/C=C/1C [Rapamycin] | – | – | 61.8 | Germination Percent Luciferase Signal [2, 11]: 18.5%
Clc1ccc(CSC(Cn2ccnc2)c2ccc(Cl)cc2Cl)cc1 (stereo not drawn) [Sulconazole nitrate] | 40.9 | 57.8 | – | –
Clc1ccc(C(Cn2ccnc2)OCc2ccsc2Cl)c(Cl)c1 (stereo not drawn) [Tioconazoie] | 36.8 | 25.0 | – | –
Cc1cccc(N(C)C(=S)Oc2ccc3ccccc3c2)c1 [Tolnaftate] | 47.3 | 60.2 | – | –
C[C@@H](c1ncncc1F)[C@](O)(Cn1cncn1)c1ccc(F)cc1F [Voriconazole] | 35.8 | 173.9 | – | –
Caspofungin acetate | 48.5 | 89.7 | – | –

From patent US11981953B2, “Method to screen compounds for antifungal activity and pharmaceutical compositions and methods to treat fungal diseases by inhibiting spore germination” (WISCONSIN ALUMNI RESEARCH FOUNDATION, priority 2018, dated 2024)
